Three compounds from patent publication US10588888B2, “CNS-accessible pharmacological chaperones for treatment of acid β-glucosidase-related disease states” (Children's Hospital Medical Center, priority 2017, dated 2020) can be followed below.

Data set [1] concerns the target T1, GCase (4L/4L and 4L;C* fibroblasts) (Mus musculus, UniProt P17439, V412L).
T1 construct: Fibroblast cells from wild type (WT) and GCase mutant mice; endogenous in cells; host or cells: mouse fibroblasts from V394L/V394L (4L/4L) and 4L/4L; saposin C-/- (4L;C*) mice
T1 sequence (P17439 20-515 V412L): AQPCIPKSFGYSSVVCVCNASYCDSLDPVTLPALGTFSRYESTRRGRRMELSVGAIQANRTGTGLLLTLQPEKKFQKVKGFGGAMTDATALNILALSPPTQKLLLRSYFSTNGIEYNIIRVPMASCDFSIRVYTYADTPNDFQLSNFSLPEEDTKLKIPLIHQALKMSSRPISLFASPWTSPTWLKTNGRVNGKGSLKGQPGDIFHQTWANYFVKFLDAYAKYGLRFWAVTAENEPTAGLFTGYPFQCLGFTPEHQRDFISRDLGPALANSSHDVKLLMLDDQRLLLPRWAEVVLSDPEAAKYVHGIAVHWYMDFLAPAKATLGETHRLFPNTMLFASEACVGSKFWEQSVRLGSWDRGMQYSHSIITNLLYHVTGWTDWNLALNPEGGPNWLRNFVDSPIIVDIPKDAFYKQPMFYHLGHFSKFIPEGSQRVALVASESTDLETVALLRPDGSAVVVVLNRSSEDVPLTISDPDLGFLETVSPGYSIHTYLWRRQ
Briefly: Immunofluorescence co-localization of GCase and Lamp1 in mutant fibroblasts. The format is cell-based. The note with it: vs untreated cells. The method, then: (§1) FIG. 5. Increased GCase protein in lysosomes of mouse fibroblasts treated with M chaperone compounds. (A) GCase (green) was co-stained with lysosomal marker, Lamp1 (red). Co-localization of GCase and Lamp1 (orange) indicates lysosomal localization of GCase.
(§2) Fibroblast cells from wild type (WT) and GCase mutant mice, homozygous V394L/V394L (4L/4L) and 4L/4L/with saposin C−/− (4L;C*) were cultured in 10% Bovine Calf Serum/Dulbecco's Modified Eagle's medium (DMEM). The compounds were dissolved in Dimethyl sulfoxide (DMSO) at 5 mM as a stock solution and stored at −20° C. For cell treatment, the stock was diluted with DMEM and added to cells. The cells were incubated with the compounds for 5 days and changed with fresh media with the compound every two days.
(§3) The cells grown on the chamber slides were fixed in 4% paraformaldehyde for 30 mins, followed by washing twice in Phosphate-buffered saline. The cells were permeablized with 0.3% Triton X-100 in Phosphate-buffered saline and washed with Phosphate-buffered saline for three times. After blocking for 30 min in 1.5% BSA/0.5% gelatin diluted in Phosphate-buffered saline, primary antibody, mouse anti-Lamp1 (1:200) and goat anti-mGCase (1:200) were applied to the cells and incubated overnight at 4° C. The signals were detected using Donkey anti-goat-FITC (1:500) and goat anti-mouse-Texas Red (1:500) to the cognate primary antibody. The stained cells were mounted with antifade containing DAPI.

In data set [2] the target is T2, mutant V394L GCase protein (Mus musculus, UniProt P17439, V412L).
T2 construct: Fibroblast cells from wild type (WT) and GCase mutant mice; endogenous in cells; host or cells: mouse fibroblasts from V394L/V394L (4L/4L) and 4L/4L; saposin C-/- (4L;C*) mice
T2 sequence (P17439 20-515 V412L): T1 sequence (P17439 20-515 V412L)
As to the kind of experiment: Immunoblot of GCase protein in mutant fibroblasts. It is filed as cell-based. The note with it: 4L/4L and 4L;C* fibroblasts, 10 μM, 5 days, vs untreated cells. The protocol: as §2
(§4) Cell pellets were collected and washed with Phosphate-buffered saline twice. The pellets were suspended in M-per lysis buffer. Freeze and thaw twice to break down the cell membrane. Protein concentration was determined by the bicinchoninic acid assay. The proteins were resolved on 4-12% NuPAGE gel (Invitrogen) and were transferred to PVDF membrane using iBlot 2 gel transfer device (Life Technologies) following manufactural instruction. The blotted membranes were incubated with Goat anti-mouse GCase (1:1000) in 1.5% BSA/1.5% milk/PBS buffer overnight at 4° C. followed by IRdye Donkey anti-Goat 1:5000. The signals were detected using LI-COR detection system according to manufacturer's instruction.

The target in another data set is T3, Mutant GCase (V394L) (Mus musculus, UniProt P17439, V412L).
T3 construct: Fibroblast cells from wild type (WT) and GCase mutant mice; endogenous in cells; host or cells: mouse fibroblasts from V394L/V394L (4L/4L) and 4L/4L; saposin C-/- (4L;C*) mice
T3 sequence (P17439 20-515 V412L): T1 sequence (P17439 20-515 V412L)
Briefly: GCase activity in mutant GCase fibroblasts treated with compounds. It is filed as cell-based. The note with it: for GCase activity (in words): 4L/4L and 4L;C* fibroblasts, 10 μM, vs untreated cells. The protocol: (§5) FIG. 1. Screen of small molecules with NCGC607 as a positive control. Mutant GCase (V394L) fibroblasts were incubated with small molecules for 5 days at various concentration.
as §2
(§6) Cell pellets were collected and washed with Phosphate-buffered saline twice. The cell pellets were homogenized in 1% Na-taurocholate/1% Triton X-100 (Tc/Tx). GCase activity was determined fluorometrically with 4MU-Glc as substrate in 0.25% Tc/Tx diluted in 0.1M citrate phosphate (CP) buffer (pH 5.6) as described. Protein concentrations of cells and tissues were determined by BCA assay using BSA as standard.

Data set [3] deals with T4, WT GCase (Mus musculus, UniProt P17439).
T4 construct: Fibroblast cells from wild type (WT) and GCase mutant mice; endogenous in cells; host or cells: wild-type mouse fibroblasts
T4 sequence (P17439 20-515): T1 sequence (P17439 20-515 V412L) with L393V
Briefly: Immunoblot of GCase protein in WT fibroblasts. It is filed as cell-based. The conditions noted are these: 10 μM, 5 days, vs untreated cells. The protocol:
as §2, §4

Another data set addresses T5, GCase (WT fibroblasts) (Mus musculus, UniProt P17439).
T5 construct: Fibroblast cells from wild type (WT) and GCase mutant mice; endogenous in cells; host or cells: wild-type mouse fibroblasts
T5 sequence (P17439 20-515): T1 sequence (P17439 20-515 V412L) with L393V
Briefly: Immunofluorescence co-localization of GCase and Lamp1 in WT fibroblasts. The note with it: vs untreated cells. It is filed as cell-based. The protocol:
as §1, §2, §3

The target in data set [4] is T4, WT GCase. As to the kind of experiment: GCase activity in WT fibroblasts treated with compounds. It is filed as cell-based. The note with it: 5 days, 10 μM, vs untreated cells. The protocol:
as §2, §6

For another data set, the target named is T6, Recombinant GCase (Homo sapiens, UniProt P04062).
T6 sequence (P04062 40-536): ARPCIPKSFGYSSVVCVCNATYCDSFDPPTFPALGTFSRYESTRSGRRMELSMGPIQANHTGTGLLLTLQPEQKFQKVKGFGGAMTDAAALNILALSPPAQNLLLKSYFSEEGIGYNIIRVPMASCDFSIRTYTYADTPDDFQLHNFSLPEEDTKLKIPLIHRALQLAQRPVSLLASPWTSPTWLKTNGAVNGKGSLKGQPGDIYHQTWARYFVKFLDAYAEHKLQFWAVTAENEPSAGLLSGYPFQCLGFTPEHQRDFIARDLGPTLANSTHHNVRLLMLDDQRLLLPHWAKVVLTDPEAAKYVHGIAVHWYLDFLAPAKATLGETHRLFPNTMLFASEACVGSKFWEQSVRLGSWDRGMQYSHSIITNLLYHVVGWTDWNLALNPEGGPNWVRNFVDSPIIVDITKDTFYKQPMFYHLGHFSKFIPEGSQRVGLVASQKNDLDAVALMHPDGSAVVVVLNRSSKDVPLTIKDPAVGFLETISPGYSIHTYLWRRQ
Briefly: Recombinant GCase activity with or without compound. The format is biochemical. The conditions noted are these: for Inhibition of GCase (in words): recombinant GCase. The protocol: FIG. 2. […] Recombinant GCase was incubated with or without compound 216 at various concentration and GCase activity was determined.

The test system of data set [5] is Mutant GCase (V394L) fibroblasts. Briefly: Toxicity in small molecule screen on mutant GCase fibroblasts. The conditions noted are these: 5 days, various concentration. The format is cell-based, mouse. The protocol:
as §5, §2

Another data set has as its system MDR1. Briefly: MDR1-MDCK assay, blood-brain-barrier penetration potential. The format is in vitro ADME. The conditions noted are these: dog, 5 μM, 120 minutes. The protocol:
(§7) MDR1-MDCK cell monolayers were grown to confluence on collagen-coated, microporous membranes in 12-well assay plates. The permeability assay buffer was Hanks' balanced salt solution containing 10 mM HEPES and 15 mM glucose at a pH of 7.4. The buffer in the receiver chamber also contained 1% bovine serum albumin. The dosing solution concentration was 5 μM of test article in the assay buffer. Cell monolayers were dosed on the apical side (A-to-B) or basolateral side (B-toA) and incubated at 37° C. with 5% CO2 in a humidified incubator. Samples were taken from the donor and receiver chambers at 120 minutes. Each determination was performed in duplicate. The flux of lucifer yellow was also measured post-experimentally for each monolayer to ensure no damage was inflicted to the cell monolayers during the flux period. All samples were assayed by LC-MS/MS using electrospray ionization.
(§8) The apparent permeability (Papp) and percent recovery were calculated as follows: Papp=(dCr/dt)×Vr/(A×CA) Percent Recovery=100×((Vr×Cr^final)+(Vd×Cd^final))/(Vd×CN)
(§9) Where, dCr/dt is the slope of the cumulative concentration in the receiver compartment versus time in μM s^−1; Vr is the volume of the receiver compartment in cm^3; Vd is the volume of the donor compartment in cm^3; A is the area of the insert (1.13 cm^2 for 12-well); CA is the average of the nominal dosing concentration and the measured 120 minute donor concentration in μM; CN is the nominal concentration of the dosing solution in μM; Cr final is the cumulative receiver concentration in M at the end of the incubation period; Cd final is the concentration of the donor in M at the end of the incubation period.
(§10) Efflux ratio (ER) is defined as Papp (B-to-A)/Papp (A-to-B).

A further data set concerns MDR1 (P-gp). Described as above. It is filed as in vitro ADME. The note with it: dog; for Papp A→B at 120 min, 5 μM: MDCK-MDR1, pH 7.4, A to B; for Papp B→A at 120 min, 5 μM: MDCK-MDR1, pH 7.4, B to A. The protocol:
as §7, §8, §9, §10

The subject of data set [6] is MDR1-MDCK cell monolayers. The data set is described as above. The note with it: MDR1-MDCK. It is filed as in vitro ADME. The protocol:
as §7, §8, §9, §10

[7] abbreviates: average, 5 μM, read-out: Papp AVE.
Setting [8] is: replicate 1, 5 μM, read-out: Papp R1.
[9] abbreviates: replicate 2, 5 μM, read-out: Papp R2.

Molecules are shown by their SMILES. Numbering of substitutions follows the chain as printed. Read-outs that look alike come from different tables or passages of the source.

For the compound `O=C(COc1ccccc1C(=O)NCC1CCCO1)Nc1ccc(Br)cc1` (stereo in doubt) [Compound 6, 2-((4-bromophenylcarbamoyl)methoxy)-N(((R)tetrahydrofuran-2-yl)methyl)benzamide], the “Lysosomal localization of GCase protein (Pearson index, in words)” value (in data set [1]; at GCase (WT fibroblasts)) was “enhanced” each time. Moreover, the “GCase protein levels (in words)” value (in data set [2]; at WT GCase [3]) was “increased” throughout. Moreover, the “GCase activity (in words)” value at Mutant GCase (V394L) (5 days) and at WT GCase [4] was “Increased” throughout.
Take `O=C(COc1ccccc1C(=O)NCC1CCCO1)Nc1ccc(Br)cc1` (centres unmarked) [Compound 216]: the “Lysosomal localization of GCase protein (Pearson index, in words)” value (in data set [1]; at GCase (WT fibroblasts)) was “enhanced” throughout. Besides, the “GCase protein levels (in words)” value (in data set [2]; at WT GCase [3]) was “increased” in each case. The “GCase activity (in words)” value at Mutant GCase (V394L) (5 days) and at WT GCase [4] was “Increased” throughout. Besides, on Mutant GCase (V394L) (V394L fibroblasts, 5 days, various concentration), the “Activation function on GCase compared to NCGC607” value is “superior”. The “Inhibition of GCase (in words)” value at Recombinant GCase is given as “non-inhibitory”; at Recombinant GCase (listed as compound 216), “did not inhibit”. The AC50 at Recombinant GCase (recombinant GCase incubated with compound at various concentration, read-out: AC50, activation effect on GCase) worked out at 10.1 µM. In addition, in data set [5], the “Toxicity compared to 607” value is reported as “reduced toxicity”.
On to `O=C(COc1ccccc1C(=O)NC[C@@H]1CCCO1)Nc1ccc(Br)cc1` [Compound 8, 2-((4-bromophenylcarbamoyl)methyoxy)-N—(((S)-tetrahydrofuran-2-yl)methyl)benzamide], for which the “Lysosomal localization of GCase protein (Pearson index, in words)” value (in data set [1]; at GCase (WT fibroblasts)) was “enhanced” in each case. Besides, the “GCase protein levels (in words)” value (in data set [2]; at WT GCase [3]) was “increased” each time. The “GCase activity (in words)” value at Mutant GCase (V394L) (5 days) and at WT GCase [4] was “Increased” each time. Also, the “Activity in the mutant GCase fibroblasts assay (comparison of stereoisomers)” value on Mutant GCase (V394L) (mutant GCase fibroblasts) is recorded as “better activity than Compound 6”. Also, the recovery at 120 min, 5 μM worked out at 77% with MDR1 (MDCK-MDR1, pH 7.4, A to B) and 86% in the data set on MDR1 (MDCK-MDR1, pH 7.4, B to A). In addition, the Papp A→B at 120 min, 5 μM was found to be 32.1 ×10⁻⁶ cm/s in the data set with MDR1 (P-gp) (setting [7]), 33.4 ×10⁻⁶ cm/s in the data set on MDR1 (P-gp) (setting [8]) and 30.8 ×10⁻⁶ cm/s with MDR1 (P-gp) (setting [9]). Further, the figures for the Papp B→A at 120 min, 5 μM with MDR1 (P-gp) (setting [7]), in the data set on MDR1 (P-gp) (setting [8]) and with MDR1 (P-gp) (setting [9]) were 34.4 ×10⁻⁶ cm/s, 31.8 ×10⁻⁶ cm/s and 37 ×10⁻⁶ cm/s, respectively. Moreover, the efflux ratio at 120 min, 5 μM in the data set on MDR1 (P-gp) (MDCK-MDR1, pH 7.4, Papp (B-to-A)/Papp (A-to-B), P-gp) worked out at 1.1. The “Brain Penetration Classification” value in [6] is given as “High”; in [6] (listed as #8), “high”.
